Where a name gives a salt, the structure may show the parent alone.
System: Human Platelet Rich Plasma
Experiment: ADP induced Aggregation of Human Platelet Rich Plasma
Assay type: cell-based
Details: 37° C., half-maximal inhibition, read-out: Human Platelet Agg IC50
Procedure: Healthy aspirin free donors were randomly selected from a pool of volunteers. The harvesting of platelet rich plasma and subsequent ADP induced platelet aggregation assays were performed as described in Zucker, M. B., "Platelet Aggregation Measured by the Photometric Method", Methods in Enzymology 169(1989):117-133. Standard venipuncture techniques using a butterfly allowed the withdrawal of 45 mL of whole blood into a 60 mL syringe containing 5 mL of 3.8% trisodium citrate. Following thorough mixing in the syringe, the anti-coagulated whole blood was transferred to a 50 mL conical polyethylene tube. The blood was centrifuged at room temperature for 12 minutes at 200 xg to sediment non-platelet cells. Platelet rich plasma was removed to a polyethylene tube and stored at room temperature until used. Platelet poor plasma was obtained from a second centrifugation of the remaining blood at 2000 xg for 15 minutes. Platelet counts are typically 300,000 to 500,000 per microliter. Platelet rich plasma (0.45 mL) was aliquoted into siliconized cuvettes and stirred (1100 rpm) at 37° C. for 1 minute prior to adding 50 uL of pre-diluted test compound. […] Aggregation was recorded for 3 minutes in a Payton dual channel aggregometer (Payton Scientific, Buffalo, N.Y.). […] All compounds were tested in duplicate and half-maximal inhibition (IC50) was calculated graphically from the dose response curve.

SMILES: N=C(N)NCCCC(=O)NCCC(=O)NC(CC(=O)O)c1cccnc1 (racemic) [Example 5, (±) β-[[3-[[4-[(aminoiminomethyl)amino]-1-oxobutyl]amino]-1-oxopropyl]amino]-3-pyridinepropanoic acid, bistrifluoroacetate salt]
- IC50: 200 µM

SMILES: N=C(N)NCCCCC(=O)NCC(=O)NC(CC(=O)O)c1cccnc1 (stereo not drawn) [Example 1, β-[[2-[[5-[(aminoiminomethyl)amino]-1-oxopentyl]amino]-1-oxoethyl]amino]-3-pyridinepropanoic acid, bistrifluoroacetate salt]
- IC50: 20 µM
